Assay results from ChEMBL document CHEMBL5506051, “Structure-Activity Relationships toward the Identification of a High-Potency Selective Human Toll-like Receptor-7 Agonist” (J Med Chem, 2024).
pEC50: −log10 of the molar value.

Assays:
[1] = biological target: T1, Toll-like receptor 8 (Homo sapiens, UniProt Q9NR97); assay: Agonist activity at human TLR8 in HEK-Blue hTLR8 cells assessed as increase in inducible SEAP level incubated for overnight by QUANTI-Blue reagent based assay; assay type: cell-based
T1 sequence (Q9NR97 whole entry): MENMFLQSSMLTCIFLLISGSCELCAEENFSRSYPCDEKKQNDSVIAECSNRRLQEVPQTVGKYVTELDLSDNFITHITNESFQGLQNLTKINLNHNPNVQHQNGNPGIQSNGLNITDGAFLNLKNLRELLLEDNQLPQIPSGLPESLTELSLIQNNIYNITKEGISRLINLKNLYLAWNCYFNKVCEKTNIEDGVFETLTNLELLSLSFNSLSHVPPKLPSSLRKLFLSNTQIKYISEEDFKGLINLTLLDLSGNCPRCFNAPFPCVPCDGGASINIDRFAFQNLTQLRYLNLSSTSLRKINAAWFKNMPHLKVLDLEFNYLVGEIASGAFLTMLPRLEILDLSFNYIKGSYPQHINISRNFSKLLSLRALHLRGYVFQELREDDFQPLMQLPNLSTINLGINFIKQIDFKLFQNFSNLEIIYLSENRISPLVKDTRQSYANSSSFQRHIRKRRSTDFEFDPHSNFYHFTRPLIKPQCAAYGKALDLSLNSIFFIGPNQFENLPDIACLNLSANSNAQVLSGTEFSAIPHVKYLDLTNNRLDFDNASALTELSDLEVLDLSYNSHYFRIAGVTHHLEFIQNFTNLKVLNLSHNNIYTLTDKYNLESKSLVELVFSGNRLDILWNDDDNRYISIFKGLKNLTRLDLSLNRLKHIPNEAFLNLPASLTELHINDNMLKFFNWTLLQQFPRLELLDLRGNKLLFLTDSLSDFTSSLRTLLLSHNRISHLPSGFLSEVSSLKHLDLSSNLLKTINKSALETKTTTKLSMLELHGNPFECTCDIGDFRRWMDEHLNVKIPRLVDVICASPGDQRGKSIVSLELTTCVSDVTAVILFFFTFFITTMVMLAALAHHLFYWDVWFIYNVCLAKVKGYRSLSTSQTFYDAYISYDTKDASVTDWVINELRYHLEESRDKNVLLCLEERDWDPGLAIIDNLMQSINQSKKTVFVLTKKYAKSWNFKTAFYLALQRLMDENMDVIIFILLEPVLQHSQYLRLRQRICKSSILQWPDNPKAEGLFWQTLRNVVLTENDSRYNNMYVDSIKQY

[2] = biological target: T2, Toll-like receptor 7 (Homo sapiens, UniProt Q9NYK1); assay: Agonist activity at human TLR7 in HEK-Blue hTLR7 cells assessed as increase in inducible SEAP level incubated for overnight by QUANTI-Blue reagent based assay; assay type: cell-based
T2 sequence (Q9NYK1 whole entry): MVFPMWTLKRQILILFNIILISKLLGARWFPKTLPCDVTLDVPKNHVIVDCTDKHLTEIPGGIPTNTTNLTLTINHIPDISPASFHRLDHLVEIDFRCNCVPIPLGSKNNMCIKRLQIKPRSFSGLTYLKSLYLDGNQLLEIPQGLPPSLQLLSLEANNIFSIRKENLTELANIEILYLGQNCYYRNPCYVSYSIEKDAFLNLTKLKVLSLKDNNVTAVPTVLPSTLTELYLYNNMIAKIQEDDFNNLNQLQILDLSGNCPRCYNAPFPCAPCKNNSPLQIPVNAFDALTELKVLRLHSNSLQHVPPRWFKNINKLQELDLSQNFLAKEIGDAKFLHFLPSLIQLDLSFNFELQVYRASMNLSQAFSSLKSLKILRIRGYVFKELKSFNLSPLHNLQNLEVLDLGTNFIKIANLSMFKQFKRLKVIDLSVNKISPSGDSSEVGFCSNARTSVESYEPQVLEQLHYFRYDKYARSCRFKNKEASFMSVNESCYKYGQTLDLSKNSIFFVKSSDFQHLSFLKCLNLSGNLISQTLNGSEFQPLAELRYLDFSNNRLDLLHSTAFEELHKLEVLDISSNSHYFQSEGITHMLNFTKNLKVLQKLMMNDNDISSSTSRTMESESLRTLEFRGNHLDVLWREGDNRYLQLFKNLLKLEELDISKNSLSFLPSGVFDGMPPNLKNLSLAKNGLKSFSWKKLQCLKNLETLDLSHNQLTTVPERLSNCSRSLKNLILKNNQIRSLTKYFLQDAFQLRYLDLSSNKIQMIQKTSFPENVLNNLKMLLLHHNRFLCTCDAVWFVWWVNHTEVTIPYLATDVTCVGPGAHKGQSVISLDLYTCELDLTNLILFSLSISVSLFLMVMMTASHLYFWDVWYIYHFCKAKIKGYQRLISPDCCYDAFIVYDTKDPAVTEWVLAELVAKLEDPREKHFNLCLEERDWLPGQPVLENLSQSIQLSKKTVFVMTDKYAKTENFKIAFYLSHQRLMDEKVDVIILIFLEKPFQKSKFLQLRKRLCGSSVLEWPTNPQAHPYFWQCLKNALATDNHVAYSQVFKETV

[3] = test system: Panel NCI-60 (60 carcinoma cell lines); assay: Cytotoxicity against human Panel NCI-60 (60 carcinoma cell lines) at <=10 uM; assay type: toxicity, cell-based
[4] = species on record: Homo sapiens; assay: Selectivity index, ratio of EC50 for agonist activity at human TLR7 in HEK-Blue hTLR7 cells to EC50 for agonist activity at human TLR8 in HEK-Blue hTLR8 cells; assay type: cell-based
[5] = biological target: T3, Toll-like receptor 7 (Homo sapiens) (UniProt Q9NYK1); assay: Potency index, ratio of BBIQ EC50 to test compound EC50 for agonist activity at human TLR7 in HEK-Blue hTLR7 cells assessed as increase in inducible SEAP level incubated for overnight by QUANTI-Blue reagent based assay; assay type: cell-based; conditions: filed as agonist
T3 sequence (whole entry): T2 sequence (Q9NYK1 whole entry)

[6] = species on record: Homo sapiens; assay: Selectivity ratio of agonist activity at human TLR8 to agonist activity at human TLR7

| pEC50 [1] | pEC50 [2] | Structure (SMILES) | other results |
| --- | --- | --- | --- |
| 4.50 | 6.70 | CCCCc1nc2c(N)nc3ccccc3c2n1Cc1ccc(C(=O)NC)cc1 | Activity [3]: Non-Toxic; Ratio EC50 [4]: 159; Ratio EC50 [5]: 8 |
| 3.90 |  | CCCCc1nc2c(N)nc3ccccc3c2n1Cc1ccc(O)cc1 |  |
| 4.74 | 6.49 | CCCCc1nc2c(N)nc3ccccc3c2n1Cc1ccc(C(N)=O)cc1 | Ratio EC50 [4]: 57; Ratio EC50 [5]: 3 |
|  | 5.96 | CCCCc1nc2c(N)nc3ccccc3c2n1Cc1ccc(C(=O)NN)cc1 |  |

Second part, the compound before the results:

| Structure (SMILES) | pEC50 [1] | pEC50 [2] | other results |
| --- | --- | --- | --- |
| CCCCc1nc2c(N)nc3ccccc3c2n1Cc1ccc(C(=O)NCCO)cc1 | 4.30 |  |  |
| CC(C)Cn1cnc2c(N)nc3ccccc3c21 [IMIQUIMOD] |  | 5.08 |  |
| CCCCCCCCNC(=O)c1ccc(Cn2c(CCCC)nc3c(N)nc4ccccc4c32)cc1 |  |  | Activity [3]: Non-Toxic |
| CCCCc1nc2c(N)nc3ccccc3c2n1Cc1ccccc1 |  | 6.07 |  |
| CCCCc1nc2c(N)nc3ccccc3c2n1Cc1ccc(OC)cc1 |  | 5.74 |  |
| CCCCOc1nc(N)c2c(n1)N(Cc1cccc(CN3CCCC3)c1)CC(=O)N2 |  |  | Selectivity ratio [6]: 30 |
| CCCCc1nc2c(N)nc3ccccc3c2n1Cc1ccc(C(=O)NCC(C)(C)O)cc1 | 4.59 | 6.51 |  |
